One assay has as its target Mu-type opioid receptor (Mus musculus, UniProt P42866). The assay can be described thus: Binding affinity against mu opioid receptor […].
The nature of assay [1]: Binding affinity against delta opioid receptor […]. The arrangement: species or system Mus musculus.
For assay [2], the target named is Mu-type opioid receptor (Mus musculus) (UniProt P42866). The assay can be described thus: Ratio of binding affinity against mu to that of delta opioid receptor.

SMILES strings stand for the structures.

Sequence of Mu-type opioid receptor (P42866 whole entry): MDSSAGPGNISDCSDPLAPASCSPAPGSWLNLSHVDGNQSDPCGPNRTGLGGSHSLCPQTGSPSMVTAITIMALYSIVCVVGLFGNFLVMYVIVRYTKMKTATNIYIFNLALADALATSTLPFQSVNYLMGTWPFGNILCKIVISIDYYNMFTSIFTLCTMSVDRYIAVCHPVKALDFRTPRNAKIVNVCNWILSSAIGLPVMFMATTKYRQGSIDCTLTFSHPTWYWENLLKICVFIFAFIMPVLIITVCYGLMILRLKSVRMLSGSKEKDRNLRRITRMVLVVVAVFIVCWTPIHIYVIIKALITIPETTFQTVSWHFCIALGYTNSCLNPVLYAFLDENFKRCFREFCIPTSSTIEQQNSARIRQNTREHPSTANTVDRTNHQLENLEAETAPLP
Sequence of Mu-type opioid receptor (Mus musculus) (P42866 whole entry): as above

As usually defined, the Ki is a measure of affinity in units of concentration, obtained from inhibition or displacement. A low value points to a stronger hold on the target. Regarding `CCNC(=O)c1ccc(C(=C2CC3CCC(C2)N3Cc2ccoc2)c2nnn[nH]2)cc1`, the inhibitory constant (Ki) on Mu-type opioid receptor stood at 83 nM; in assay [1], 210 nM. Moreover, the Ratio in assay [2] stood at 0.4.

Regarding `CCNC(=O)c1ccc(C(=C2CC3CCC(C2)N3Cc2ccoc2)c2ccc(C(=O)N(C)C)cc2)cc1`, the inhibitory constant (Ki) on Mu-type opioid receptor turned out to be 6.7 nM; in assay [1], 4.6 nM. The Ratio in assay [2] amounted to 1.5.

In the case of `CCNC(=O)c1ccc(C(=C2CC3CCC(C2)N3Cc2ccoc2)c2ccc([N+](=O)[O-])cc2)cc1`, the Ki at Mu-type opioid receptor turned out to be 1.5 nM; in assay [1], 0.23 nM. Moreover, the Ratio in assay [2] is 6.5.

With `CCNC(=O)c1ccc(C(=C2CC3CCC(C2)N3Cc2ccoc2)c2cccc(CCC(=O)O)c2)cc1`, the Ki is 3 nM on Mu-type opioid receptor and 0.78 nM in assay [1]. The Ratio in assay [2] was found to be 3.9.

On to `C=C(C)CCN1[C@@H]2CC[C@H]1C/C(=C(\c1ccc(C(=O)NCC)cc1)c1cccc(C(=O)O)c1)C2`, for which the results for the Ki (at Mu-type opioid receptor; in assay [1]) were 24 nM and 30 nM, respectively.

Compound `CCNC(=O)c1ccc(C(=C2CC3CCC(C2)N3Cc2ccoc2)c2cccc(-c3nn[nH]n3)c2)cc1` came in with a Ki in assay [1] of 0.73 nM. The Ratio in assay [2] was 2100.

With `CCNC(=O)c1ccc(C(=C2CC3CCC(C2)N3Cc2ccoc2)c2cccc(C#N)c2)cc1`, the values for the Ki (at Mu-type opioid receptor; in assay [1]) were 3.3 nM and 0.6 nM, respectively. The Ratio in assay [2] came out at 5.5.

Regarding `CCNC(=O)c1ccc(C(=C2CC3CCC(C2)N3Cc2ccoc2)c2cccc(C(=O)O)c2)cc1`, the Ki in assay [1] worked out at 3.5 nM. Moreover, the Ratio in assay [2] came out at 8.

Consider `CCNC(=O)c1ccc(C(=C2CC3CCC(C2)N3Cc2cccnc2)c2ccccc2)cc1`, for which the Ki in assay [1] amounted to 71 nM. Further, in assay [2], the Ratio came out at 0.87.

As to `CCNC(=O)c1ccc(C(=C2CC3CCC(C2)N3Cc2ccoc2)c2ccccn2)cc1`, the Ki on Mu-type opioid receptor amounted to 45 nM; in assay [1] it was 10 nM. Besides, the Ratio in assay [2] was 4.5.

Turning to `CCNC(=O)c1ccc(C(=C2CC3CCC(C2)N3Cc2ccoc2)c2ccc(S(N)(=O)=O)cc2)cc1`, the inhibition constant Ki on Mu-type opioid receptor stood at 50 nM; in assay [1] it was 16 nM. Further, the Ratio in assay [2] came out at 3.1.

As for `CCNC(=O)c1ccc(C(=C2CC3CCC(C2)N3Cc2ccccn2)c2cccc(NC(C)=O)c2)cc1`, the Ki at Mu-type opioid receptor was found to be 3.6 nM; in assay [1], 28 nM. In addition, the Ratio in assay [2] came out at 0.13.

For the compound `CCNC(=O)c1ccc(C(=C2CC3CCC(C2)N3Cc2ccsc2)c2ccc3c(c2)OCO3)cc1`, the inhibition constant (Ki) worked out at 1.3 nM on Mu-type opioid receptor and 3.1 nM in assay [1]. The Ratio in assay [2] worked out at 0.42.

As to `CCNC(=O)c1ccc(C(=C2CC3CCC(C2)N3Cc2ccoc2)c2cccc(CO)c2)cc1`, the Ki turned out to be 0.81 nM on Mu-type opioid receptor and 0.15 nM in assay [1]. For the same compound, the Ratio in assay [2] was found to be 5.4.

As for `CCNC(=O)c1ccc(C(=C2CC3CCC(C2)N3Cc2c[nH]cn2)c2cccc(NC(C)=O)c2)cc1`, in assay [1], the Ki stood at 19 nM. Further, in assay [2], the Ratio is 0.5.

Take `CCNC(=O)c1ccc(C(=C2CC3CCC(C2)N3Cc2ccoc2)c2cnccn2)cc1`: the Ki at Mu-type opioid receptor was determined as 9.9 nM; in assay [1], 3.4 nM. The Ratio in assay [2] came out at 2.9.

The compound `CCNC(=O)c1ccc(C(=C2CC3CCC(C2)N3Cc2ccoc2)c2ccc3c(c2)OCO3)cc1` displayed an inhibition constant (Ki) on Mu-type opioid receptor of 1.1 nM. The Ratio in assay [2] was found to be 1.

Consider `CCNC(=O)c1ccc(/C(C#N)=C2\C[C@H]3CC[C@@H](C2)N3Cc2ccoc2)cc1`, for which the Ki is 2.6 nM at Mu-type opioid receptor and 0.9 nM in assay [1].

Consider `CCNC(=O)c1ccc(C(=C2CC3CCC(C2)N3Cc2ccoc2)c2c(C)cccc2C)cc1`, for which the Ki at Mu-type opioid receptor turned out to be 1.4 nM; in assay [1] it was 1.3 nM. In assay [2], the Ratio is 1.1.

As for `CCN(CC)C(=O)c1ccc(C(=C2CC3CCC(C2)N3CCc2ccccc2)c2ccccc2)cc1`, the inhibition constant Ki stood at 0.26 nM at Mu-type opioid receptor and 47 nM in assay [1]. Besides, the Ratio in assay [2] came to 0.0055.

Take `CCNC(=O)c1ccc(C(=C2CC3CCC(C2)N3Cc2ccoc2)c2ccc(S(C)(=O)=O)cc2)cc1`: the results for the Ki (at Mu-type opioid receptor; in assay [1]) were 3.1 nM and 2 nM, respectively. Also, the Ratio in assay [2] stood at 1.6.

As for `CCNC(=O)c1ccc(/C(=C2/C[C@H]3CC[C@@H](C2)N3Cc2ccsc2)c2ccc(CO)cc2)cc1`, the Ki on Mu-type opioid receptor was 80 nM; in assay [1], 17 nM.

Consider `CCNC(=O)c1ccc(C(=C2CC3CCC(C2)N3Cc2ccoc2)c2cncnc2)cc1`, for which the inhibitory constant (Ki) was 6.9 nM at Mu-type opioid receptor and 2.3 nM in assay [1]. Besides, the Ratio in assay [2] was determined as 3.

Consider `CCNC(=O)c1ccc(/C(=C2\C[C@H]3CC[C@@H](C2)N3Cc2ccsc2)c2ccc(CO)cc2)cc1`, for which the inhibition constant Ki on Mu-type opioid receptor was 17 nM; in assay [1], 2 nM.

As for `CCNC(=O)c1ccc(/C(=C2/C[C@H]3CC[C@@H](C2)N3Cc2ccsc2)c2cccc(-c3nn[nH]n3)c2)cc1`, the figures for the inhibition constant Ki (at Mu-type opioid receptor; in assay [1]) were 3100 nM and 31 nM, respectively.

Take `CCNC(=O)c1ccc(/C(=C2/C[C@H]3CC[C@@H](C2)N3Cc2ccccn2)c2ccc(C(=O)N(C)C)cc2)cc1`: the inhibition constant (Ki) at Mu-type opioid receptor was 100 nM; in assay [1], 0.5 nM.

Consider `CCNC(=O)c1ccc(C(=C2CC3CCC(C2)N3Cc2ccoc2)c2ccc(C(N)=O)cc2)cc1`, for which the inhibition constant (Ki) on Mu-type opioid receptor was 1.3 nM; in assay [1] it was 3.9 nM. Further, in assay [2], the Ratio was found to be 0.33.

As to `C=C(C)CCN1[C@@H]2CC[C@H]1C/C(=C(/c1ccc(C(=O)NCC)cc1)c1cccc(C(=O)O)c1)C2`, the Ki at Mu-type opioid receptor amounted to 58 nM; in assay [1], 2.2 nM.

On to `CCNC(=O)c1ccc(C(=C2CC3CCC(C2)N3Cc2ccoc2)c2cccc(C(C)=O)c2)cc1`, for which the inhibition constant (Ki) worked out at 1.3 nM at Mu-type opioid receptor and 0.4 nM in assay [1]. The Ratio in assay [2] was found to be 3.3.

With `CCNC(=O)c1ccc(C(=C2CC3CCC(C2)N3Cc2ccoc2)c2ccc(C(=O)O)cc2)cc1`, the inhibition constant (Ki) is 12 nM on Mu-type opioid receptor and 5.3 nM in assay [1]. Besides, the Ratio in assay [2] amounted to 2.3.

Consider `CCNC(=O)c1ccc(C(=C2CC3CCC(C2)N3Cc2ccoc2)c2cccc(NC(C)=O)c2)cc1`, for which the inhibition constant Ki on Mu-type opioid receptor was 1.2 nM; in assay [1], 0.5 nM. Besides, the Ratio in assay [2] is 2.4.

On to `CCNC(=O)c1ccc(/C(C#N)=C2/C[C@H]3CC[C@@H](C2)N3Cc2ccoc2)cc1`, for which the values for the inhibition constant Ki (on Mu-type opioid receptor; in assay [1]) were 2.3 nM and 1.1 nM, respectively.

Regarding `CCNC(=O)c1ccc(C(=C2CC3CCC(C2)N3CCc2ccccc2)c2ccccc2)cc1`, the values for the Ki (at Mu-type opioid receptor; in assay [1]) were 72 nM and 0.24 nM, respectively. Besides, the Ratio in assay [2] is 300.

Take `CCNC(=O)c1ccc(C(=C2CC3CCC(C2)N3Cc2ccoc2)c2cccc(CN)c2)cc1`: the Ki was determined as 71 nM at Mu-type opioid receptor and 20 nM in assay [1]. The Ratio in assay [2] was determined as 3.6.

In the case of `CCNC(=O)c1ccc(C=C2CC3CCC(C2)N3Cc2ccoc2)cc1`, the inhibitory constant (Ki) on Mu-type opioid receptor stood at 110 nM; in assay [1] it was 93 nM. Besides, the Ratio in assay [2] was found to be 1.2.

For `CCNC(=O)c1ccc(C(=C2CC3CCC(C2)N3Cc2ccoc2)c2c(C)noc2C)cc1`, the Ki on Mu-type opioid receptor was determined as 1.8 nM; in assay [1] it was 1.2 nM. Also, the Ratio in assay [2] is 1.5.

As for `CCNC(=O)c1ccc(C(=C2CC3CCC(C2)N3Cc2ccoc2)c2ccc(CO)cc2)cc1`, the Ki on Mu-type opioid receptor came to 19 nM; in assay [1], 2.7 nM. Also, in assay [2], the Ratio worked out at 7.

In the case of `CCNC(=O)c1ccc(C(=C2CC3CCC(C2)N3Cc2ccoc2)c2cc(C(=O)O)cc([N+](=O)[O-])c2)cc1`, the values for the Ki (at Mu-type opioid receptor; in assay [1]) were 12 nM and 0.94 nM, respectively. The Ratio in assay [2] was 13.

Regarding `CCNC(=O)c1ccc(C(=C2CC3CCC(C2)N3Cc2cccs2)c2ccccn2)cc1`, the inhibitory constant (Ki) at Mu-type opioid receptor is 6 nM; in assay [1] it was 3.8 nM. In addition, in assay [2], the Ratio came out at 1.6.

On to `CCNC(=O)c1ccc(C(=C2CC3CCC(C2)N3Cc2ccoc2)c2ccc(F)cc2)cc1`, for which the inhibitory constant (Ki) worked out at 1.7 nM on Mu-type opioid receptor and 1.4 nM in assay [1]. In assay [2], the Ratio is 1.2.

Take `CCNC(=O)c1ccc(C(=C2CC3CCC(C2)N3Cc2ccoc2)c2cnc3ccccc3c2)cc1`: the Ki was 4 nM on Mu-type opioid receptor and 20 nM in assay [1]. The Ratio in assay [2] stood at 0.2.

With `CCNC(=O)c1ccc(C(=C2CC3CCC(C2)N3Cc2ccoc2)c2ccc(O)c(OC)c2)cc1`, the Ki amounted to 0.59 nM at Mu-type opioid receptor and 0.3 nM in assay [1]. In addition, in assay [2], the Ratio was found to be 2.

Consider `CCNC(=O)c1ccc(/C(=C2\C[C@H]3CC[C@@H](C2)N3Cc2ccsc2)c2cccc(-c3nn[nH]n3)c2)cc1`, for which the Ki on Mu-type opioid receptor amounted to 12 nM; in assay [1], 0.7 nM.

Turning to `CCNC(=O)c1ccc(C(Br)=C2CC3CCC(C2)N3Cc2ccoc2)cc1`, the values for the inhibitory constant (Ki) (on Mu-type opioid receptor; in assay [1]) were 1.9 nM and 0.8 nM, respectively. For the same compound, the Ratio in assay [2] is 2.4.

`C=C(C)CCN1[C@@H]2CC[C@H]1C/C(=C(/c1ccc(C(=O)NCC)cc1)c1cccc(C(C)=O)c1)C2`: the results for the Ki (on Mu-type opioid receptor; in assay [1]) were 2.8 nM and 1.5 nM, respectively.

At Mu-type opioid receptor, `CCNC(=O)c1ccc(C(=C2CC3CCC(C2)N3Cc2cnc[nH]2)c2cccc(NC(C)=O)c2)cc1` came in with a Ki of 9.4 nM.

In the case of `CCNC(=O)c1ccc(/C(Br)=C2/C[C@H]3CC[C@@H](C2)N3Cc2ccoc2)cc1`, the Ki is 39 nM on Mu-type opioid receptor and 29 nM in assay [1].

As to `CCNC(=O)c1ccc(C(=C2CC3CCC(C2)N3Cc2ccoc2)c2ccc(NC(C)=O)cc2)cc1`, the values for the Ki (at Mu-type opioid receptor; in assay [1]) were 0.8 nM and 0.34 nM, respectively. The Ratio in assay [2] came out at 2.4.

For `CCNC(=O)c1ccc(C(=C2CC3CCC(C2)N3Cc2ccsc2)c2cnccn2)cc1`, the Ki at Mu-type opioid receptor is 2.5 nM; in assay [1], 17 nM. In addition, in assay [2], the Ratio is 0.15.

For `CCNC(=O)c1ccc(/C(=C2\C[C@H]3CC[C@@H](C2)N3Cc2ccccn2)c2ccc(C(=O)N(C)C)cc2)cc1`, the inhibitory constant (Ki) came to 14 nM on Mu-type opioid receptor and 0.2 nM in assay [1].

Regarding `CCNC(=O)c1ccc(C(=C2CC3CCC(C2)N3Cc2ccoc2)c2cccc(F)c2)cc1`, the Ki on Mu-type opioid receptor was 3.7 nM; in assay [1], 0.4 nM. In addition, the Ratio in assay [2] is 9.3.

With `C=C(C)CCN1[C@@H]2CC[C@H]1C/C(=C(\c1ccc(C(=O)NCC)cc1)c1cccc(C(C)=O)c1)C2`, the Ki was found to be 680 nM at Mu-type opioid receptor and 28 nM in assay [1].

On to `CCNC(=O)c1ccc(/C(Br)=C2\C[C@H]3CC[C@@H](C2)N3Cc2ccoc2)cc1`, for which the inhibition constant Ki at Mu-type opioid receptor came out at 0.2 nM; in assay [1], 0.3 nM.

Source of the values: ChEMBL document CHEMBL1138013, “Parallel methods for the preparation and SAR exploration of N-ethyl-4-[(8-alkyl-8-aza-bicyclo[3.2.1]oct-3-ylidene)-aryl-methyl]-benzamides, powerful mu and delta opioid agonists” (Bioorg Med Chem Lett, 2004).
